# Measurements published in US20190314379A1, “METHODS OF USING CANNABINOID CB2 RECEPTOR AGONIST COMPOSITIONS TO SUPPRESS AND PREVENT OPIOID TOLERANCE AND WITHDRAWAL IN A SUBJECT” (Indiana University Research and Technology Corporation, priority 2018, published 2019).
# “Also recorded” adds a separate entry of the source.
# How the values were obtained:
# [1] = molecular target: T1, mouse CB2 receptors (Mus musculus, UniProt P47936); assay: Myo-inositol phosphate-1 (IP1) accumulation, HEK mCB2; format: cell-based; conditions: via mouse CB2
# T1 construct: expressed in transfected cells
# T1 sequence (P47936 whole entry): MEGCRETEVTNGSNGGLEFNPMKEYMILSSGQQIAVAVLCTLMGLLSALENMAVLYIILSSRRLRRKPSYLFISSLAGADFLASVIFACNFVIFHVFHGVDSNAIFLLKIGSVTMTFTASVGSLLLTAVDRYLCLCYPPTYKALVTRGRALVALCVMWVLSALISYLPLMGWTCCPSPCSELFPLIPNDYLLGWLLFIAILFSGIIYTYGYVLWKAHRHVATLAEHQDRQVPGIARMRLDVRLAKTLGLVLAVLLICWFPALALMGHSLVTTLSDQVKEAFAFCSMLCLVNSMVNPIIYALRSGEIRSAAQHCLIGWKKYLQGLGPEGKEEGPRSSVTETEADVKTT
# [2] = tested on: paclitaxel-induced cold allodynia; assay: Paclitaxel-induced cold allodynia (acetone); format: in vivo, mouse; conditions: 10 mg/kg per day i.p.×12 days
# Experimental: (§1) In all studies, the experimenter was blinded to the treatment condition, and mice were randomly assigned to experimental conditions. Paclitaxel (4 mg/kg i.p.) was administered four times on alternate days (cumulative dose, 16 mg/kg i.p.) to induce neuropathic pain as described previously by our group (Deng et al., 2015). Control mice received an equal volume of cremophor-vehicle. Development of paclitaxel-induced allodynia was assessed on day 0, 4, 7, 11, and 14.
# (§2) Effects of pharmacologic manipulations were assessed at 30 minutes after drug administration during the maintenance phase of paclitaxel-induced neuropathy (i.e., beginning day 18-20 after initial paclitaxel injection).
# (§3) In experiments 2 and 3, pharmacologic manipulations were performed once daily for 12 consecutive days in each of the two phases of chronic treatment. Four days separated phase 1 and phase 2 chronic dosing in all studies comprising two phases of chronic dosing. Experiments 2 and 3 were performed concurrently using overlapping cohorts that were tested with a single vehicle (phase 1), vehicle (phase 2) group.
# (§4) We then assessed the antiallodynic efficacy of chronic systemic administration of vehicle or morphine (10 mg/kg per day i.p.×12 days) administered during phase 2 in the same animals. Responsiveness to mechanical and cold stimulation was evaluated on treatment days 1, 4, 8, and 12 during phase 1 and on treatment days 16, 19, 23, and 27 during phase 2 (i.e., phase 2 started on day 16).
# (§5) In experiment 4, we evaluated the impact of coadministration of morphine (10 mg/kg i.p.×12 days) with a submaximal dose of LY 2828360 (0.1 mg/kg per day i.p.×12 days) in WT and CB2 KO mice.
# Response time (seconds) spent attending to (i.e., elevating, licking, biting, or shaking) the paw stimulated with acetone (Sigma-Aldrich) was measured in triplicate for each paw to assess cold allodynia as previously published. An acetone bubble (approximately 5 to 6 p.1) formed at the end of a blunt 1-ml syringe hub was gently applied to the plantar surface of the hind paw. Care was taken not to apply mechanical stimulation to the hind paw with the syringe itself. The total time the animal spent attending to the acetone-stimulated paw (i.e., elevation, shaking, or licking) was recorded over 1 minute after acetone application. Acetone was applied three times to each paw with a 3-minute interval between applications. Values for each animal were calculated as the mean of six determinations of acetone responsiveness derived from each mouse.
# [3] = tested on: paclitaxel-induced mechanical allodynia; assay: Paclitaxel-induced mechanical allodynia (electronic von Frey); format: in vivo, mouse; conditions: 10 mg/kg per day i.p.×12 days
# Experimental: as §1, §2, §3, §4, §5
# Paw withdrawal thresholds (grams) to mechanical stimulation were measured in duplicate for each paw using an electronic von Frey anesthesiometer supplied with a 90-g probe (model Alemo 2390-5; IITC, Woodland Hills, Calif.) as described previously. Mice were placed on an elevated metal mesh table and allowed to habituate under individual, inverted plastic cages to the testing platform for at least 20 minutes until exploratory behavior had ceased. Alter the habituation period, a force was applied to the midplantar region of the hind paw with a semiflexible tip connected to the anesthesiometer. Mechanical stimulation was terminated when the animal withdrew its paw, and the value of the applied force was recorded in grams. Mechanical paw withdrawal thresholds were obtained in duplicate for each paw and are reported as the mean of duplicate determinations from each animal, averaged across animals, for each group.
# [4] = tested on: naloxone-precipitated opioid withdrawal; assay: Naloxone-precipitated opioid withdrawal in paclitaxel-treated mice; format: in vivo, mouse
# Experimental: Alter the last injection of morphine (on day 28 for two-phase treatments, on day 13 for coadministration treatment), we challenged WT or CB2KO mice from experiments 2, 3, and 4 with vehicle, followed 30 minutes later by naloxone (5 mg/kg i.p.) to precipitate opioid receptor-mediated withdrawal. Mice were video-recorded for subsequent scoring of withdrawal-like behaviors for a 30-minute interval after challenge with vehicle or naloxone.
# Mice were video-taped, and the number of jumps was scored in 5-minute intervals for a total observation period of 30 minutes after challenge with either saline or naloxone (5 mg/kg i.p.).
# [5] = molecular target: T2, human CB2 (Homo sapiens, UniProt P34972); assay: Forskolin-stimulated cAMP accumulation (cyclase), HEK hCB2; format: cell-based; parameters: expressed in transfected cells; time of inhibition of forskolin-stimulated cAMP accumulation: dose or concentration left out as unconfirmed
# T2 sequence (P34972 whole entry): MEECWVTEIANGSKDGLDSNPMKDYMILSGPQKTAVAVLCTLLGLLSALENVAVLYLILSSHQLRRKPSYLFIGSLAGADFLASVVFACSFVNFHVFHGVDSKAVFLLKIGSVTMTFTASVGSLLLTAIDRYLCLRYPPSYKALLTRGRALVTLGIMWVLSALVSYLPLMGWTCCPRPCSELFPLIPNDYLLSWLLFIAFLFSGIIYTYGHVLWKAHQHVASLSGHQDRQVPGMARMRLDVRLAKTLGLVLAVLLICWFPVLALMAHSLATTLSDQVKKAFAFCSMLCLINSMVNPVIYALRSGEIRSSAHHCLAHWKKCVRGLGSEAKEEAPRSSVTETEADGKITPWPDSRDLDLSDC
# [6] = molecular target: T1, mouse CB2 receptors; assay: On-cell western for receptor internalization, HEK mCB2; format: cell-based
# [7] = molecular target: T2, human CB2; assay: On-cell western for receptor internalization, HEK hCB2; format: cell-based; parameters: expressed in transfected cells; conditions: read-out: Internalization Emax
# [8] = molecular target: T1, mouse CB2 receptors; assay: Forskolin-stimulated cAMP accumulation (cyclase), HEK mCB2; format: cell-based
# [9] = molecular target: T2, human CB2; assay: Phosphorylated ERK1/2 detection, HEK hCB2; format: cell-based; parameters: expressed in transfected cells
# [10] = molecular target: T1, mouse CB2 receptors; assay: Phosphorylated ERK1/2 detection, HEK mCB2; format: cell-based
# [11] = molecular target: T1, mouse CB2 receptors; assay: Arrestin recruitment (PathHunter CHO K1CNR2, enzyme complementation); format: cell-based
# [12] = tested on: morphine analgesia and antinociceptive tolerance; conditions: rats, with morphine; cited from earlier work
# [13] = WT mice, days 16-27, 10 mg/kg/day
smiles,measurement,setting,value
"Cc1c(C(=O)c2cccc3ccccc23)c2cccc3c2n1[C@H](CN1CCOCC1)CO3 [WIN55212-2, reference compound]",IP1 accumulation,[1],increased IP1 accumulation
"CN1CC[C@]23c4c5ccc(O)c4O[C@H]2[C@@H](O)C=C[C@H]3[C@H]1C5 [morphine, reference compound]","cold allodynia, chronic phase 1 morphine",[2]; CB2KO mice,completely absent on day 8 and day 12
same,"cold allodynia, chronic phase 1 morphine","[2]; WT mice, days 4, 8, 12",tolerance developed to the antiallodynic effects of morphine
same,"cold allodynia, phase 2 morphine after phase 1 vehicle",[2]; [13],only suppressed paclitaxel-induced mechanical and cold allodynia on day 16; also recorded: no longer efficacious
same,"mechanical allodynia, chronic phase 1 morphine",[3]; CB2KO mice,completely absent on day 8 and day 12
same,"mechanical allodynia, chronic phase 1 morphine","[3]; WT mice, days 4, 8, 12",tolerance developed to the antiallodynic effects of morphine
same,"mechanical allodynia, phase 2 morphine after phase 1 vehicle",[3]; [13],only suppressed paclitaxel-induced mechanical and cold allodynia on day 16; also recorded: no longer efficacious
same,"naloxone-precipitated jumping, Veh (1)-Mor (2) vs Veh (1)-Veh (2)",[4]; paclitaxel-treated CB2KO mice,precipitated jumping
same,"number of naloxone-precipitated jumps, vehicle (1)-morphine (2) vs vehicle (1)-vehicle (2)","[4]; paclitaxel-treated WT mice, morphine 10 mg/kg per day×12 days, naloxone 5 mg/kg i.p.",exhibited a greater number of jumps
same,"naloxone-precipitated withdrawal, Mor (1)-LY (2) vs Veh (1)-Veh (2)","[4]; paclitaxel-treated WT mice, morphine in phase 1",did not precipitate withdrawal
"CCCCCCC(C)(C)c1ccc([C@@H]2C[C@H](O)CC[C@H]2CCCO)c(O)c1 (relative stereo) [CP55940, reference compound]","cAMP levels, compound alone (no forskolin)",[5]; HEK hCB2,alone did not change the cAMP levels
same,duration of decrease in cAMP,[5]; HEK hCB2,up to 10 minutes
same,"inhibition of forskolin-induced cAMP levels, time course","[5]; HEK hCB2, 1 μM final concentration",produced early inhibition of forskolin-induced cAMP levels at 5 minutes
same,inhibition of forskolin-stimulated cAMP after PTX pretreatment,"[5]; HEK hCB2, 1 μM final concentration, PTX",blocked the inhibition of forskolin-stimulated cAMP
same,inhibition of forskolin-stimulated cAMP accumulation,"[5]; hCB2, 5 minutes of treatment",potent and efficacious
same,time of inhibition of forskolin-stimulated cAMP accumulation,"[5]; hCB2, time course",5 min
same,inhibition of cAMP accumulation after PTX pretreatment,"[5]; hCB2, time course, PTX",abolished this effect
same,Emax,[5]; read-out: Cyclase Emax,59.6%
same,EC50,[6],7.4 nM
same,receptor internalization,[6]; HEK mCB2,concentration dependently internalized the mCB2
same,Emax,[6]; read-out: Internalization Emax,49.1%
same,Emax,[7],33.9%
same,EC50,[8],6.6 nM
same,forskolin-induced cAMP levels,"[8]; HEK mCB2, 1 μM final concentration, 5 minutes",attenuated forskolin-induced cAMP levels; also recorded: stronger inhibitory effect than AM1710
same,cAMP levels in the absence of forskolin,"[8]; HEK mCB2, compound alone",alone did not change cAMP levels
same,forskolin-stimulated cAMP after PTX treatment,"[8]; mCB2, 1 μM, PTX 300 ng/ml overnight",modestly increased cAMP accumulation at 5 minutes; also recorded: abolished the decrease in forskolin-stimulated cAMP
same,time of efficacious inhibition of forskolin-stimulated adenylyl cyclase,"[8]; mCB2, 1 μM, time course",~5 min
same,"inhibition of forskolin-stimulated cAMP accumulation, concentration response","[8]; mCB2, 5 minutes",potently and efficaciously inhibited cAMP accumulation
same,Emax,[8]; read-out: Cyclase Emax,52.8%
same,ERK1/2 phosphorylation time course,"[9]; hCB2, 1 pM","efficaciously increased ERK1/2 phosphorylation after 5 minutes, 10 minutes, and 30 minutes"
same,ERK1/2 phosphorylation after PTX treatment,"[9]; hCB2, 1 pM, PTX",retained
same,stimulated phosphorylation of ERK1/2 in presence of SR144528,"[9]; hCB2, SR144528 (1 pM)",completely blocked
same,Emax,"[9]; read-out: pERK1/2 Emax, human CB2, 05 mins incubation",95.7%
same,Emax,"[9]; read-out: pERK1/2 Emax, human CB2, 30 mins incubation",49.4%
same,ERK1/2 phosphorylation time course,"[10]; mCB2, 1 μM","increased phosphorylated ERK1/2 at 5-, 10-, 30-, and 40-minute time points"
same,ERK1/2 phosphorylation after PTX treatment,"[10]; mCB2, 1 μM, PTX","abolished the CP55940-mediated phosphorylation of ERK1/2 at the 5-minute time point, but it was retained at the 40-minute time point"
same,"ERK1/2 phosphorylation, concentration response","[10]; mCB2, 5 minutes",concentration dependency increased ERK1/2 phosphorylation
same,"ERK1/2 phosphorylation, concentration response","[10]; mCB2, 20 minutes",decreased ERK1/2 phosphorylation
same,effect on ERK1/2 phosphorylation in presence of SR144528,"[10]; mCB2, 20 minutes, SR144528 1 μM",blocked
same,EC50,"[10]; pERK1/2 EC50, mouse CB2, 05 mins incubation",10.5 nM
same,EC50,"[10]; pERK1/2 EC50, mouse CB2, 20 mins incubation",1.5 nM
same,Emax,"[10]; read-out: pERK1/2 Emax, mouse CB2, 05 mins incubation",136%
same,Emax,"[10]; read-out: pERK1/2 Emax, mouse CB2, 20 mins incubation",20.3%
same,EC50,[11],2.3 nM
same,arrestin recruitment,"[11]; CHO cells expressing mCB2, 90-minute drug incubation",recruited arrestin in a concentration-dependent manner
same,Emax,[11]; read-out: Arrestin Emax,125%
CCCCCOc1c(OC)ccc2cc(C(=O)NCc3ccc4c(c3)OCO4)c(=O)[nH]c12 [JTE907],morphine analgesia and morphine antinociceptive tolerance,[12],decreased morphine analgesia and attenuated morphine antinociceptive tolerance
